Literature values as cited in patent US20260092327A1, “METHODS OF MONITORING MUTATIONS IN TREATMENT OF COLORECTAL CANCER” (Cardiff Oncology, Inc., priority 2022, published 2026).

What was measured:
[1] = test system: advanced/metastatic solid tumors
PLK1 = PLK1 (Homo sapiens, UniProt P53350); settings: among a panel of 296 kinases, including other PLK members
[2] = test system: cell lines from solid and hematologic tumors; settings: large number of cell lines
xenograft tumor = settings: well tolerated doses in mice after oral administration
[3] = test system: HT29 human colon adenocarcinoma xenografts; settings: compared to each agent alone
[4] = test system: disseminated model of AML
[5] = test system: HCT-116 KRAS-mutant CRC xenograft; settings: HCT-116 KRAS-mutant CRC xenograft model
[6] = adult subjects with advanced/metastatic solid tumors, single agent

PLK1, sequence (P53350 whole entry): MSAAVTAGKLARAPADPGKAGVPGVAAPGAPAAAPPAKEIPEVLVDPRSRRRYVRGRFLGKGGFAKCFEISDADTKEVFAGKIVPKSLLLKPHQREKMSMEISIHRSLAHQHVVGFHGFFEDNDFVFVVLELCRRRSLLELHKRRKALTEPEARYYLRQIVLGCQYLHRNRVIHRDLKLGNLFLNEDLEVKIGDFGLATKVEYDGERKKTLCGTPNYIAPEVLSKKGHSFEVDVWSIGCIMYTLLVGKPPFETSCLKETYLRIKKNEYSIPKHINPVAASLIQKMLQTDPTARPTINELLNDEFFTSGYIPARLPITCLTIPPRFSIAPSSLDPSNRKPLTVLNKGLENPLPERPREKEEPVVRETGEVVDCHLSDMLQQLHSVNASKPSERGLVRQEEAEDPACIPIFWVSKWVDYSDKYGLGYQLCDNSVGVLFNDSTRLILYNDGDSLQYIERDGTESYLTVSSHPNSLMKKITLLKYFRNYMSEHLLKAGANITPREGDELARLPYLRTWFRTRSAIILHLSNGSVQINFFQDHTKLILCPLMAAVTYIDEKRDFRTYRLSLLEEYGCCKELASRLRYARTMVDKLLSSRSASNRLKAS

CN1CCN(c2ccc(OC(F)(F)F)c(Nc3ncc4c(n3)-c3c(c(C(N)=O)nn3CCO)CC4)c2)CC1 [Onvansertib, 1-(2-hydroxyethyl)-8-{[5-(4-methylpiperazin-1-yl)-2-(trifluoromethoxy)phenyl]amino}-4,5-dihydro-1H-pyrazolo[4,3-h]quinazoline-3-carboxamide]
evaluable patients with stable disease [1, 6]: 5 of 16 | recommended phase 2 dose [1, 6]: 24 mg/m^2 | primary dose-limiting toxicities ([1]; patients with advanced/metastatic solid tumors): neutropenia and thrombocytopenia | recovery of hematologic toxicities ([1]; toxicities reversible): ≤ 3 weeks | specificity for PLK1 (PLK1): high specificity | potency in proliferation assays [2]: low nanomolar activity | effect on cell cycle (cancer cell lines): mitotic cell-cycle arrest followed by apoptosis | xenograft tumor growth (xenograft tumor): inhibits xenograft tumor growth | tumor regression in combination with irinotecan [3]: enhanced tumor regression | survival of animals in combination with cytarabine [4]: prolonged survival | anti-tumor activity as single agent [5]: potent anti-tumor activity | combination effect with 5-FU [5]: synergy | combination effect with irinotecan [5]: synergy | half-life (in vivo): about 24 hours | oral bioavailability (rodent and nonrodent species): good oral bioavailability
